According to patent US20230348394A1, “COMPOSITIONS AND METHODS FOR TREATING MUSCULAR DYSTROPHIES” (The Regents of the University of California, priority 2020, published 2023):

What was measured:
SSPN protein = assay: Sarcospan immunoblot of H2K mdx myotubes; format: cell-based, murine; conditions: 2.5 to 10 μM, 48 hours
Protocol: Myotubes treated for 48 hrs were lysed using RIPA buffer (Thermo Fisher Scientific) containing Halt Protease Inhibitor Cocktail (Thermo Fisher Scientific). Cell lysates in RIPA buffer were rocked for 1 hr at 4° C. and centrifuged at 1,000 RPM for 30 mins at 4° C. The supernatant was collected, quantified for protein concentration using the DC protein assay (Bio-Rad), and normalized to 2 mg/ml in water and Laemmli sample buffer with a final concentration of 10% glycerol (Sigma-Aldrich), 5% beta-mercaptoethanol (Sigma-Aldrich), 3% sodium dodecyl sulfate (Sigma-Aldrich), and 0.05% bromophenol blue (Sigma-Aldrich). […] Autoradiography films were developed using a SRX-101A tabletop processor (Konica Minolta), scanned to a digital file, and analyzed by densitometry of bands using ImageJ version 1.51 s. […]
After excluding compounds that were unstable in solution or that produced highly variable results, nine compounds remained. […] To determine if the increase in SSPN mRNA was also evident at the protein level, we treated mdx myotubes with 2.5 to 10 μM of OT-9, PC1-36, and PC1-42 and analyzed total protein lysates by immunoblotting with SSPN antibodies.

[1] = Preliminary safety assessment, IP injection in C57/B16 mice; format: in vivo
Protocol: For the preliminary safety assessment of OT-9, we performed IP injections in 6 month old C57/B16 males. The mice were injected with 100 μl of vehicle (5% DMSO (Sigma), 95% PBS), 100 μl of 30 mg/kg of OT-9 in vehicle, or 100 μl of 50 mg/kg of OT-9 in vehicle (n=1 mouse per treatment). […] For assessment of activity, 20-weeks old male mdx littermates were injected in both tibialis anterior muscles with vehicle (5% DMSO, 95% PBS) or 86 μg of OT-9. Two mice were injected in both TAs with vehicle and three mice were injected in both TAs with 200 of OT-9 (9.4 mM solution containing 86 μg of OT-9). After 4 hours, the muscles were harvested and processed for gene expression analysis. For assessment of activity of OT-9m after local administration, 19-22-weeks old mdx males were injected in both tibialis anterior muscles with vehicle (5% DMSO, 95% PBS) or 3 mg/kg and 10 mg/kg of OT-9m. After 4 hours, the muscles were harvested and processed for gene expression analysis. For assessment of activity of OT-9m after systemic administration, 13-weeks old mdx males were injected subcutaneously with vehicle (4% PEG-200 in hydroxypropyl-b-cyclodextrin) or 20 mg/kg/day of OT-9m. After 13 days of treatment, the muscles were harvested and processed for gene expression analysis.
To evaluate the in vivo safety and activity of OT-9, we performed two pilot studies in wild-type C57/B16 and mdx mice. For the preliminary safety assessment of OT-9, we performed IP injections in 6-month old C57/B16 males. The mice were injected with vehicle, 30 mg/kg of OT-9, or 50 mg/kg of OT-9 (n=1).

mdx myotubes = assay: Membrane stability assay (creatine kinase release after osmotic shock); format: cell-based, murine; conditions: for CK release after osmotic shock: 5 μM
Protocol: The membrane stability assay was modified from previously described methods. The solutions for osmotic shock were prepared from a base solution containing 5 mM HEPES, 5 mM KCl, 1 mM MgCl2, 5 mM NaCl, 1.2 mM CaCl2), and 1 mM glucose. Sucrose was added to the base solutions to reach osmolarities of 50, 80, 100, 280, and 300 mosmol. The actual osmolarity was determined using a VAPRO vapor pressure osmometer (Wescor Inc.) Myotubes were treated for 48 hours and at day 4 of differentiation were subjected to 20 mins of osmotic shock at 37° C. using 28.5 to 223.5 milliosmole (mosmol) solutions. The supernatant was collected and centrifuged to separate cell debris. Adherent cells were trypsinized and pelleted before lysis with water and 3 freeze-thaw cycles. The Creatine Kinase Assay (Sekisui Diagnostics) was used to measure creatine kinase (CK) levels in both the supernatant and lysate fractions. In a 96-well plate, 4 μl of each sample and 140 μl of reagent was loaded per well in triplicate. The U/L of CK was calculated as follows: (mOD/min)(total volume in mL)(dilution factor)/(6.22M-lcm-1)(light path in cm)(sample volume in mL). The percent CK release was calculated as follows: CKextracellular/(CKextracellular+CKintracellular)*100.
The assay entails subjecting myotubes to osmotic shock, which causes cell swelling and membrane damage, allowing for intracellular CK to be released from the cell into the surrounding medium (FIG. 5a).
To assess the effect of SSPN knockdown on membrane stability in the absence of any compound treatment, we transfected mdx myotubes with 24 and 48 nM of scramble and SSPN siRNA and subjected the cells to osmotic shock with 45 mosmol solutions. […] We treated mdx myotubes with 10 μM of OT-9 in parallel with 24 nM of scramble or SSPN siRNA for 48 hours prior to osmotic shock and discovered that depletion of SSPN increased the CK release from 6.5% to 8% (FIG. 5d).

[2] = IP 30 mg/kg or 50 mg/kg, observed 72 hours, n=1

In the case of CCN(CC)c1ccc2cc(C(=O)Nc3ccc(C(=O)N4CCCCCC4)cc3)c(=O)oc2c1 [OT-9], the “increase of SSPN protein levels” value (SSPN protein) is reported as 1.5 fold, the “appearance of the dosing solution” value ([1]; 50 mg/kg solution in 5% DMSO, 95% PBS) is reported as “some insoluble particles were observed” and the “liver, kidneys, pancreas and intestine” value [1, 2] is reported as “normal weight and size”. For the same compound, the “observation of the injection site” value [1, 2] was “No signs of inflammation, necrosis or compound accumulation”, the “CK release after osmotic shock” value (mdx myotubes; 48 hours, 28.5 mosmol solution) was “did not reduce CK release” and the “CK release after osmotic shock” value (mdx myotubes; 48 hours, 45, 63 and 223.5 mosmol solutions) was “significantly reduced CK release”. It also gave a CK release (mdx myotubes; 10 μM OT-9 with 24 nM SSPN siRNA, 48 hours) of 8% and a CK release (mdx myotubes; 10 μM OT-9 with 24 nM scramble siRNA, 48 hours) of 6.5%.
